The subject of one assay is HeLa cells. Put plainly: Transfection in the presence of Bafilomycin A. Type of assay: cell-based. To be noted: 175 nM Bafilomycin A, 150 ng pTG11236. How it is done:
Transfection in the presence of Bafilomycin A: 6×10^4 HeLa cells were plated on 24 well plates. Cells were treated with 175 nM Bafilomycin A 30 min before and throughout the transfection (1 h incubation of cells with transfection mix in the absence of serum).
Bafilomycin A is a specific inhibitor of the vacuolar proton pump. Treatment with Bafilomycin inhibits the acidification of late endosomes. HeLa cells were treated with Bafilomycin A (175 nM) 30 min before and throughout the transfection (1 h incubation with transfection complexes in the absence of serum). 6×10^4 cells were transfected with 150 ng pTG11236 using PEI or ppTG1. The luciferase assay was performed 1 day after transfection.

The nature of assay [1]: Liposome leakage assay, POPC liposomes containing calcein. The conditions noted are these: pH5 and pH7, 20 μg as starting point. How it is done: Leakage activity was plotted against peptide concentration.
The peptide ppTG1 was tested for its capacity to cause membrane disruption in a liposome leakage assay with POPC liposomes containing the fluorescent product calcein. […] Release of calcein by Triton X-100 treatment was taken as positive control reaction, incubation with water served as negative control. The membranolytic activity of peptide ppTG1 (20 μg as starting point) was compared with those of equal quantities (20 μg) of JTS-1, JTS-1-K13 and KALA.

Assay [2] concerns WiDr, MDA-MB-435S, SW480 and LoVo. The assay can be described thus: Transfection of human tumor cell lines. Type of assay: cell-based. The conditions noted are these: ppTG1/plasmid pTG11236 complexes, luciferase day 1. As to the method:
WiDr (ATCC CCL-218), MDA-MB-435S (ATCC HTB-129), SW480 (ATCC CCL-228) and LoVo cell (CCL-229) were cultivated in the appropriate medium with 10% fetal calf serum, 1% gentamycine, 1% glutamine and 3 g/l glucose, in an incubator at 37° C. and 5% CO2.
The transfection efficiencies with plasmid/ppTG1 complexes were tested in the human tumor cells WiDr, MDA-MB-435S, SW480 and LoVo (ATCC) in comparison to lipofectin, PEI and pcTG90/DOPE (1:1) [+/−] 5.

For the next assay, the system named is plasmid pTG11236. Put plainly: Gel retardation assay (DNA binding). How it is done:
3μg of the plasmid pTG11236 were incubated with increasing amounts of the respective peptide in a final volume of 30 μl with 0.9% NaCl. After 20 min of incubation at room temperature, 6 μl 5× loading buffer (glycerol and bromphenol blue in TAE buffer) were added and 10 μl of these solutions were analyzed on a 1% agarose gel in the presence of ethidium bromide.
The ability of ppTG1 peptide to complex DNA was analyzed by gel retardation assays. […] After 20 minutes incubation at room temperature, loading buffer was added and 10 μl of the resulting solution were analyzed on a 1% agarose gel.
ppTG1 derivatives as they are indicated in Materials and Methods, were tested for their capacity to bind plasmid DNA by gel retardation assays.

Entries after “also recorded” stand apart in the source; their conditions may differ. Ends that are not written are not given here.

Regarding GLFKALLKLLKSLWKLLLKA, the “effect of Bafilomycin A on transfection efficiency” value in the assay on HeLa cells is “not diminished; also recorded: did not influence the transfection efficiency”. For the same sequence, the “membrane disruption (calcein release)” value in assay [1] is given as “capable of causing membrane disruption”. Further, the “transfection of human tumor cell lines” value in assay [2] is “successfully transfected; also recorded: can efficiently transfect human tumor cell lines, especially SW480 cells”. Moreover, the “amount of peptide at which 50% of the DNA is complexed” value in the assay on plasmid pTG11236 (3 μg pTG11236, 1 μg = 0.35 nmol) worked out at 1 µg. For the same sequence, the “amount of peptide giving retardation of plasmid” value with plasmid pTG11236 (3 μg plasmid DNA (0.8 pmol), 4 μg peptide = 1.4 nmol) was determined as 4 µg.

(Values after US20020055174A1, “Complex for transferring an anionic substance of interest into a cell” (priority 2000, published 2002).)
